Source: the NIST ThermoML archive (doi:10.1016/j.fluid.2010.03.010)
± gives the expanded uncertainty stated by the source.

Settings: Liquid, Vibrating tube method

CCCC[n+]1ccn(C)c1.O=S(=O)([N-]S(=O)(=O)C(F)(F)F)C(F)(F)F
Settings	mass density [kg/m3]
293.15 K, 100 kPa	1441.8 ± 12
293.15 K, 101.33 kPa	1441.34 ± 12
293.15 K, 250 kPa	1441.9 ± 12
293.15 K, 500 kPa	1442.1 ± 12
293.15 K, 1000 kPa	1442.4 ± 12
293.15 K, 2000 kPa	1443.2 ± 12
293.15 K, 4990 kPa	1445.4 ± 12
293.15 K, 10000 kPa	1449 ± 12
293.15 K, 15000 kPa	1452.5 ± 12
293.15 K, 20000 kPa	1456 ± 12
293.15 K, 25010 kPa	1459.3 ± 12
293.15 K, 30000 kPa	1462.6 ± 12
293.15 K, 35000 kPa	1465.8 ± 12
293.15 K, 40000 kPa	1469.1 ± 12
293.15 K, 45000 kPa	1472.2 ± 12
293.15 K, 50000 kPa	1475.3 ± 12
293.15 K, 55000 kPa	1478.3 ± 12
293.15 K, 59970 kPa	1481.3 ± 12
294.15 K, 101.33 kPa	1440.37 ± 12
295.15 K, 101.33 kPa	1439.4 ± 12
296.15 K, 101.33 kPa	1438.43 ± 12
297.15 K, 101.33 kPa	1437.46 ± 12
298.15 K, 101.33 kPa	1436.5 ± 12
299.15 K, 101.33 kPa	1435.53 ± 12
300.15 K, 101.33 kPa	1434.57 ± 11
301.15 K, 101.33 kPa	1433.61 ± 11
302.15 K, 101.33 kPa	1432.64 ± 11
303.15 K, 100 kPa	1432.3 ± 12
303.15 K, 101.33 kPa	1431.69 ± 11
303.15 K, 250 kPa	1432.4 ± 12
303.15 K, 500 kPa	1432.6 ± 12
303.15 K, 1000 kPa	1432.9 ± 12
303.15 K, 2000 kPa	1433.7 ± 12
303.15 K, 5000 kPa	1436 ± 12
303.15 K, 10000 kPa	1439.7 ± 12
303.15 K, 15000 kPa	1443.3 ± 12
303.15 K, 20000 kPa	1446.8 ± 12
303.15 K, 25000 kPa	1450.2 ± 12
303.15 K, 30000 kPa	1453.6 ± 12
303.15 K, 34990 kPa	1456.9 ± 12
303.15 K, 40000 kPa	1460.2 ± 12
303.15 K, 45010 kPa	1463.4 ± 12
303.15 K, 50000 kPa	1466.5 ± 12
303.15 K, 54990 kPa	1469.6 ± 12
303.15 K, 60010 kPa	1472.7 ± 12
304.15 K, 101.33 kPa	1430.73 ± 11
305.15 K, 101.33 kPa	1429.77 ± 11
306.15 K, 101.33 kPa	1428.82 ± 11
307.15 K, 101.33 kPa	1427.86 ± 11
308.15 K, 101.33 kPa	1426.9 ± 11
309.15 K, 101.33 kPa	1425.95 ± 11
310.15 K, 101.33 kPa	1425 ± 11
311.15 K, 101.33 kPa	1424.05 ± 11
312.15 K, 101.33 kPa	1423.1 ± 11
313.15 K, 100 kPa	1422.8 ± 11
313.15 K, 101.33 kPa	1422.15 ± 11
313.15 K, 250 kPa	1422.9 ± 11
313.15 K, 500 kPa	1423.1 ± 11
313.15 K, 1000 kPa	1423.5 ± 11
313.15 K, 2000 kPa	1424.3 ± 11
313.15 K, 5000 kPa	1426.6 ± 11
313.15 K, 10000 kPa	1430.4 ± 12
313.15 K, 15010 kPa	1434.1 ± 12
313.15 K, 20010 kPa	1437.7 ± 12
313.15 K, 25000 kPa	1441.2 ± 12
313.15 K, 30000 kPa	1444.7 ± 12
313.15 K, 34990 kPa	1448 ± 12
313.15 K, 40000 kPa	1451.4 ± 12
313.15 K, 45010 kPa	1454.6 ± 12
313.15 K, 50010 kPa	1457.9 ± 12
313.15 K, 55000 kPa	1461 ± 12
313.15 K, 60000 kPa	1464.1 ± 12
314.15 K, 101.33 kPa	1421.2 ± 11
315.15 K, 101.33 kPa	1420.25 ± 11
316.15 K, 101.33 kPa	1419.3 ± 11
317.15 K, 101.33 kPa	1418.36 ± 11
318.15 K, 101.33 kPa	1417.41 ± 11
319.15 K, 101.33 kPa	1416.47 ± 11
320.15 K, 101.33 kPa	1415.53 ± 11
321.15 K, 101.33 kPa	1414.58 ± 11
322.15 K, 101.33 kPa	1413.64 ± 11
323.15 K, 100 kPa	1413.5 ± 11
323.15 K, 101.33 kPa	1412.7 ± 11
323.15 K, 250 kPa	1413.6 ± 11
323.15 K, 500 kPa	1413.8 ± 11
323.15 K, 1010 kPa	1414.2 ± 11
323.15 K, 2000 kPa	1415 ± 11
323.15 K, 4990 kPa	1417.4 ± 11
323.15 K, 10010 kPa	1421.3 ± 11
323.15 K, 14990 kPa	1425.1 ± 11
323.15 K, 20010 kPa	1428.8 ± 12
323.15 K, 24990 kPa	1432.4 ± 12
323.15 K, 30010 kPa	1435.9 ± 12
323.15 K, 35010 kPa	1439.4 ± 12
323.15 K, 40000 kPa	1442.8 ± 12
323.15 K, 45000 kPa	1446.1 ± 12
323.15 K, 50000 kPa	1449.4 ± 12
323.15 K, 55000 kPa	1452.6 ± 12
323.15 K, 60000 kPa	1455.8 ± 12
324.15 K, 101.33 kPa	1411.76 ± 11
325.15 K, 101.33 kPa	1410.82 ± 11
326.15 K, 101.33 kPa	1409.88 ± 11
327.15 K, 101.33 kPa	1408.94 ± 11
328.15 K, 101.33 kPa	1408 ± 11
329.15 K, 101.33 kPa	1407.06 ± 11
330.15 K, 101.33 kPa	1406.12 ± 11
331.15 K, 101.33 kPa	1405.19 ± 11
332.15 K, 101.33 kPa	1404.25 ± 11
333.15 K, 100 kPa	1404.2 ± 11
333.15 K, 101.33 kPa	1403.32 ± 11
333.15 K, 250 kPa	1404.3 ± 11
333.15 K, 500 kPa	1404.5 ± 11
333.15 K, 1010 kPa	1404.9 ± 11
333.15 K, 2000 kPa	1405.8 ± 11
333.15 K, 4990 kPa	1408.2 ± 11
333.15 K, 10000 kPa	1412.3 ± 11
333.15 K, 14990 kPa	1416.2 ± 11
333.15 K, 20010 kPa	1420 ± 11
333.15 K, 25000 kPa	1423.6 ± 11
333.15 K, 30010 kPa	1427.3 ± 12
333.15 K, 34990 kPa	1430.8 ± 12
333.15 K, 40010 kPa	1434.3 ± 12
333.15 K, 45000 kPa	1437.6 ± 12
333.15 K, 50000 kPa	1441 ± 12
333.15 K, 54990 kPa	1444.3 ± 12
333.15 K, 60000 kPa	1447.5 ± 12
334.15 K, 101.33 kPa	1402.39 ± 11
335.15 K, 101.33 kPa	1401.45 ± 11
336.15 K, 101.33 kPa	1400.52 ± 11
337.15 K, 101.33 kPa	1399.59 ± 11
338.15 K, 101.33 kPa	1398.66 ± 11
339.15 K, 101.33 kPa	1397.73 ± 11
340.15 K, 101.33 kPa	1396.8 ± 11
341.15 K, 101.33 kPa	1395.87 ± 11
342.15 K, 101.33 kPa	1394.94 ± 11
343.15 K, 100 kPa	1395 ± 11
343.15 K, 101.33 kPa	1394.01 ± 11
343.15 K, 250 kPa	1395.1 ± 11
343.15 K, 500 kPa	1395.3 ± 11
343.15 K, 1000 kPa	1395.7 ± 11
343.15 K, 2000 kPa	1396.6 ± 11
343.15 K, 4990 kPa	1399.1 ± 11
343.15 K, 10010 kPa	1403.3 ± 11
343.15 K, 14910 kPa	1407.2 ± 11
343.15 K, 20000 kPa	1411.2 ± 11
343.15 K, 24990 kPa	1414.9 ± 11
343.15 K, 30010 kPa	1418.7 ± 11
343.15 K, 34990 kPa	1422.3 ± 11
343.15 K, 39990 kPa	1425.8 ± 12
343.15 K, 45000 kPa	1429.3 ± 12
343.15 K, 50000 kPa	1432.7 ± 12
343.15 K, 55000 kPa	1436.1 ± 12
343.15 K, 60000 kPa	1439.4 ± 12
344.15 K, 101.33 kPa	1393.09 ± 11
